The text below walks through data of the supplement of paper PMC7695840.

Structures can show the parent of a compound that is named as a salt.

Test [1] has as its system Staphylococcus aureus MW2 (mecA+). The test is described as follows: IC50 (growth, competition assay). The following applies: cefoxitin: subinhibitory. Put shortly: (§1)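 Two fluorescent S. aureus MW2 strains, one carrying and one lacking the resistance gene, were pre-induced, mixed 1:1 and grown unshaken in LB in 1536-well plates for 20 h at 37 °C and 90% humidity with a subinhibitory drug dose set each day. Compounds were tested on five- or nine-point 2-fold gradients in two dye-swapped replicates. DsRed (540/590) and GFP (485/520) signals were scaled per plate between the medians of single-strain controls, and No Treatment was then set to 0.5. For each strain, IC50 was taken as the dose that halved the No Treatment signal, or else the maximal signal.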

The subject of test [2] is Staphylococcus aureus MW2 delta-mecA (mecA-). Briefly: IC50 (growth, competition assay). The following applies: cefoxitin: subinhibitory. An outline of the steps:
as §1

Usually IC50 stands for the concentration needed to halve the response being measured. Low values mean inhibition by little substance, high ones a need for much substance. As for `CC[C@H]1OC(=O)[C@H](C)[C@@H](O[C@H]2C[C@@](C)(OC)[C@@H](O)[C@H](C)O2)[C@H](C)[C@@H](O[C@@H]2O[C@H](C)C[C@H](N(C)C)[C@H]2O)[C@](C)(OC)C[C@@H](C)C(=O)[C@H](C)[C@@H](O)[C@]1(C)O` [BIAXIN], the 50% inhibitory concentration (IC50) in test [1] (fluorescent label: DsRed), in test [1] (fluorescent label: GFP), in test [2] (fluorescent label: DsRed) and in test [2] (fluorescent label: GFP) was below 9.85 µM in each case.
For the compound `CCOc1ccc2ccccc2c1C(=O)N[C@@H]1C(=O)N2[C@@H]1SC(C)(C)[C@@H]2C(=O)O` [NALLPEN], the half-inhibitory concentration (IC50) in test [1] (fluorescent label: DsRed), in test [1] (fluorescent label: GFP), in test [2] (fluorescent label: DsRed) and in test [2] (fluorescent label: GFP) was below 9.85 µM each time.
`O=C1C(SCCO)=C(SCCO)C(=O)c2ccccc21`: the IC50 was 11.8 µM in test [1] (fluorescent label: DsRed), 16.3 µM in test [1] (fluorescent label: GFP), below 9.85 µM in test [2] (fluorescent label: DsRed) and below 9.85 µM in test [2] (fluorescent label: GFP).
As for `Cc1nc2sccn2c(=O)c1CCN1CCC(=C(c2ccc(F)cc2)c2ccc(F)cc2)CC1` [Ritanserin], the IC50 came to 57.5 µM in test [1] (fluorescent label: DsRed), 56.9 µM in test [1] (fluorescent label: GFP), 17.3 µM in test [2] (fluorescent label: DsRed) and 29 µM in test [2] (fluorescent label: GFP).
Take `CC1=CC(=O)c2c(O)cccc2C1=O` [PLUMBAGIN]: the IC50 is 18 µM in test [1] (fluorescent label: DsRed), 38.3 µM in test [1] (fluorescent label: GFP), below 9.85 µM in test [2] (fluorescent label: DsRed) and below 9.85 µM in test [2] (fluorescent label: GFP).
Take `CC(C)(Sc1ccc(CCN(CCCCC2CCCCC2)C(=O)NC2CCCCC2)cc1)C(=O)O` [GW7647]: the IC50 is 14.3 µM in test [1] (fluorescent label: DsRed), 13.1 µM in test [1] (fluorescent label: GFP), below 9.85 µM in test [2] (fluorescent label: DsRed) and below 9.85 µM in test [2] (fluorescent label: GFP).
As for `COc1cc2c(c(OC)c1OC)-c1ccc(=O)c(O)cc1[C@@H](NC(C)=O)CC2` [COLCHICEINE], the IC50 stood at 81.3 µM in test [1] (fluorescent label: DsRed), 84.6 µM in test [1] (fluorescent label: GFP), 45.5 µM in test [2] (fluorescent label: DsRed) and 51.2 µM in test [2] (fluorescent label: GFP).
`N#Cc1c(Cl)c(Cl)c(Cl)c(C#N)c1Cl` [CHLOROTHALONIL]: the IC50 in test [1] (fluorescent label: DsRed), in test [1] (fluorescent label: GFP), in test [2] (fluorescent label: DsRed) and in test [2] (fluorescent label: GFP) was below 9.85 µM in each case.
For the compound `Cc1cc(-n2c(=O)[nH]c(=O)n(C)c2=O)ccc1Oc1ccc(SC(F)(F)F)cc1` [BAYCOX], the IC50 stood at 70.8 µM in test [1] (fluorescent label: DsRed), 113 µM in test [1] (fluorescent label: GFP), 59.8 µM in test [2] (fluorescent label: DsRed) and 32 µM in test [2] (fluorescent label: GFP).
On to `CN(C)[C@@H]1C(=O)C(C(N)=O)=C(O)[C@@]2(O)C(=O)C3=C(O)c4c(O)ccc(Cl)c4[C@@H](O)[C@H]3C[C@@H]12` [Demeclocycline hydrochloride], for which the half-inhibitory concentration (IC50) in test [1] (fluorescent label: DsRed), in test [1] (fluorescent label: GFP), in test [2] (fluorescent label: DsRed) and in test [2] (fluorescent label: GFP) was below 9.85 µM in each case.
For the compound `O=C(CCCCCN1CCN(c2ccccc2-c2ccccc2)CC1)NC1CCCc2ccccc21` (configuration not stated) [LP 12 hydrochloride hydrate], the IC50 is 17.2 µM in test [1] (fluorescent label: DsRed), 23.3 µM in test [1] (fluorescent label: GFP), below 9.85 µM in test [2] (fluorescent label: DsRed) and below 9.85 µM in test [2] (fluorescent label: GFP).
Regarding `CC1(C)S[C@@H]2[C@H](NC(=O)[C@H](N)c3ccccc3)C(=O)N2[C@H]1C(=O)O` [Ampicillin sodium], the IC50 in test [1] (fluorescent label: DsRed) was below 9.85 µM; in test [1] (fluorescent label: GFP) it was 15.1 µM; in test [2] (fluorescent label: DsRed), below 9.85 µM; in test [2] (fluorescent label: GFP), below 9.85 µM.
For the compound `O=c1[nH]cc(F)c(=O)[nH]1` [Adrucil (Fluorouracil)], the IC50 in test [1] (fluorescent label: DsRed) is 1.76 µM; in test [1] (fluorescent label: GFP), 1.78 µM; in test [2] (fluorescent label: DsRed), below 0.498 µM; in test [2] (fluorescent label: GFP) it was below 0.498 µM.
As for `CO[C@@]1(NC(=O)C(C(=O)O)c2ccc(O)cc2)C(=O)N2C(C(=O)O)=C(CSc3nnnn3C)CO[C@@H]21` (some centres not stated) [MOXAM], the half-maximal inhibitory concentration (IC50) in test [1] (fluorescent label: DsRed) is 26.2 µM; in test [1] (fluorescent label: GFP) it was 18.5 µM; in test [2] (fluorescent label: DsRed), below 9.85 µM; in test [2] (fluorescent label: GFP), below 9.85 µM.
Turning to `CC1(C)S[C@@H]2[C@H](NC(=O)[C@H](NC(=O)N3CCNC3=O)c3ccccc3)C(=O)N2[C@H]1C(=O)O` [AZLIN], the IC50 in test [1] (fluorescent label: DsRed) is 32.2 µM; in test [1] (fluorescent label: GFP), 47.2 µM; in test [2] (fluorescent label: DsRed), below 9.85 µM; in test [2] (fluorescent label: GFP), below 9.85 µM.
Turning to `Oc1cc2c(cc1O)CN(C(=S)NCCc1ccc(Cl)cc1)CCC2` [Capsazepine], the IC50 in test [1] (fluorescent label: DsRed) is 59.4 µM; in test [1] (fluorescent label: GFP), 111 µM; in test [2] (fluorescent label: DsRed), 34.5 µM; in test [2] (fluorescent label: GFP), 36.1 µM.
Turning to `Brc1c(Br)c(Br)c2[nH]cnc2c1Br` [TBBz], the 50% inhibitory concentration (IC50) stood at 12.4 µM in test [1] (fluorescent label: DsRed), 30.5 µM in test [1] (fluorescent label: GFP), 11.7 µM in test [2] (fluorescent label: DsRed) and 11.3 µM in test [2] (fluorescent label: GFP).
In the case of `CCn1cc(C(=O)O)c(=O)c2cc(F)c(N3CCNC(C)C3)c(F)c21` (configuration not stated) [Lomefloxacin hydrochloride], the IC50 in test [1] (fluorescent label: DsRed), in test [1] (fluorescent label: GFP), in test [2] (fluorescent label: DsRed) and in test [2] (fluorescent label: GFP) was below 9.85 µM in each case.
For the compound `CCCCCCCCCCCCCCCC[N+](C)(C)CCN(Cc1ccc(OC)cc1)c1ncccn1` [THONZIDE], the IC50 in test [1] (fluorescent label: DsRed) is below 9.85 µM; in test [1] (fluorescent label: GFP) it was 14.9 µM; in test [2] (fluorescent label: DsRed), below 9.85 µM; in test [2] (fluorescent label: GFP), below 9.85 µM.
With `O=C(N/N=C/c1ccc([N+](=O)[O-])o1)c1ccc(O)cc1` [NIFUROXAZIDE], the IC50 in test [1] (fluorescent label: DsRed) is below 9.85 µM; in test [1] (fluorescent label: GFP), 54.6 µM; in test [2] (fluorescent label: DsRed), 46.2 µM; in test [2] (fluorescent label: GFP) it was below 9.85 µM.
Consider `COc1cc(Nc2ncc3c(n2)-c2ccc(Cl)cc2C(c2c(F)cccc2OC)=NC3)ccc1C(=O)O` [MLN8237 (Alisertib)], for which the half-maximal inhibitory concentration (IC50) in test [1] (fluorescent label: DsRed) was 12.4 µM; in test [1] (fluorescent label: GFP), 27.5 µM; in test [2] (fluorescent label: DsRed), below 9.85 µM; in test [2] (fluorescent label: GFP) it was below 9.85 µM.
Take `C[C@@H](O)[C@H]1C(=O)N2C(C(=O)[O-])=C(SC3Cn4cnc[n+]4C3)[C@H](C)[C@H]12` (some centres not stated) [Biapenem]: the half-maximal inhibitory concentration (IC50) in test [1] (fluorescent label: DsRed) is 104 µM; in test [1] (fluorescent label: GFP) it was 112 µM; in test [2] (fluorescent label: DsRed) it was 31.4 µM; in test [2] (fluorescent label: GFP) it was 24.7 µM.
The like results for `CCc1ccc(/C=C2/SC(=S)NC2=O)cc1` were, in that order, below 9.85 µM, below 9.85 µM, below 9.85 µM and below 9.85 µM.
Turning to `C=C1c2cccc(O)c2C(=O)C2=C(O)[C@]3(O)C(=O)C(C(N)=O)=C(O)[C@@H](N(C)C)[C@@H]3[C@@H](O)[C@H]12` [Methacycline hydrochloride (Physiomycine)], the IC50 in test [1] (fluorescent label: DsRed) is 0.702 µM; in test [1] (fluorescent label: GFP), 0.644 µM; in test [2] (fluorescent label: DsRed), below 0.498 µM; in test [2] (fluorescent label: GFP), below 0.498 µM.
In the case of `C=C1C(=O)[C@]23[C@H](CC[C@@H]1[C@@H]2O)[C@]12CO[C@@]3(O)[C@H](O)[C@H]1C(C)(C)CC[C@@H]2O` [RUBESCENSIN A], the IC50 came out at 36.3 µM in test [1] (fluorescent label: DsRed), 84.5 µM in test [1] (fluorescent label: GFP), 17.9 µM in test [2] (fluorescent label: DsRed) and 17.2 µM in test [2] (fluorescent label: GFP).
For the compound `Cc1onc(-c2ccccc2)c1C(=O)N[C@@H]1C(=O)N2[C@@H]1SC(C)(C)[C@@H]2C(=O)O` [Oxacillin sodium monohydrate], the IC50 in test [1] (fluorescent label: DsRed), in test [1] (fluorescent label: GFP), in test [2] (fluorescent label: DsRed) and in test [2] (fluorescent label: GFP) was below 9.85 µM each time.
`Cc1cc2c(C(C)C)c(O)c(O)c(C=O)c2c(O)c1-c1c(C)cc2c(C(C)C)c(O)c(O)c(C=O)c2c1O` [Gossypol]: the IC50 in test [1] (fluorescent label: DsRed), in test [1] (fluorescent label: GFP), in test [2] (fluorescent label: DsRed) and in test [2] (fluorescent label: GFP) was below 9.85 µM in each case.
With `CN1C[C@H](CNC(=O)OCc2ccccc2)C[C@@H]2c3cccc4c3c(cn4C)C[C@H]21` [METERGOLINE], the IC50 in test [1] (fluorescent label: DsRed) amounted to 50.7 µM; in test [1] (fluorescent label: GFP), 53.6 µM; in test [2] (fluorescent label: DsRed) it was 16.8 µM; in test [2] (fluorescent label: GFP), 15.9 µM.
